In US20090163523A1, “Combinations comprising a s1p receptor agonist and a jak3 kinase inhibitor” (priority 2004, published 2009):
Values after ≈ are worked out from the molar mass of the structure shown.

Tested on: donor heart graft
Experiment: Rat heart transplantation, graft survival
Type: in vivo
Conditions: 672 h; rat heart transplant; blood concentration; read-out: EC50 (drug concentration in blood at which 50% of the animals maintain their graft for >28 days)
Procedure: The aorta is ligated and divided distal to the first branch and the brachiocephalic trunk is divided at the first bifurcation. The left pulmonary artery is ligated and divided and the right side divided but left open. All other vessels are dissected free, ligated and divided and the donor heart is removed into iced saline.
The recipient is prepared by dissection and cross-clamping of the infra-renal abdominal aorta and vena cava. The graft is implanted with end-to-side anastomoses, using 10/0 monofilament suture, between the donor brachiocephalic trunk and the recipient aorta and the donor right pulmonary artery to the recipient vena cava. The clamps are removed, the graft tethered retroabdominally, the abdominal contents washed with warm saline and the animal is closed and allowed to recover under a heating lamp. Graft survival is monitored by daily palpation of the beating donor heart through the abdominal wall. Rejection is considered to be complete when heart beat stops.

Molecule `C[C@@H]1CCN(C(=O)CC#N)C[C@@H]1N(C)c1ncnc2[nH]ccc12` [CP-690,550 mono-citrate, 3-{(3R,4R)-4-methyl-3-[methyl-(7H-pyrrolo[2,3-d]pyrimidin-4-yl)-amino]-piperidin-1-yl}-3-oxo-propionitrile] has an EC50 of 0.06 µg/mL (≈ 0.192 µM).
